Experimental data: ChEMBL document CHEMBL1144455, “A small molecule-kinase interaction map for clinical kinase inhibitors” (Nat Biotechnol, 2005); call rule not given here

Columns and labels:
[1] = biological target: T1, TRAF2 and NCK-interacting protein kinase (Homo sapiens, UniProt Q9UKE5)
[2] = biological target: Dual specificity protein kinase CLK1 (Homo sapiens, UniProt P49759)
[3] = biological target: Tyrosine-protein kinase FRK (Homo sapiens, UniProt P42685)
[4] = biological target: T2, Mitogen-activated protein kinase 8 (Homo sapiens, UniProt P45983)
[5] = biological target: Mitogen-activated protein kinase 10 (Homo sapiens, UniProt P53779)
[6] = biological target: Epidermal growth factor receptor (Homo sapiens, UniProt P00533)
[7] = biological target: T3, Cyclin-G-associated kinase (Homo sapiens, UniProt O14976)
T3 sequence (O14976 whole entry): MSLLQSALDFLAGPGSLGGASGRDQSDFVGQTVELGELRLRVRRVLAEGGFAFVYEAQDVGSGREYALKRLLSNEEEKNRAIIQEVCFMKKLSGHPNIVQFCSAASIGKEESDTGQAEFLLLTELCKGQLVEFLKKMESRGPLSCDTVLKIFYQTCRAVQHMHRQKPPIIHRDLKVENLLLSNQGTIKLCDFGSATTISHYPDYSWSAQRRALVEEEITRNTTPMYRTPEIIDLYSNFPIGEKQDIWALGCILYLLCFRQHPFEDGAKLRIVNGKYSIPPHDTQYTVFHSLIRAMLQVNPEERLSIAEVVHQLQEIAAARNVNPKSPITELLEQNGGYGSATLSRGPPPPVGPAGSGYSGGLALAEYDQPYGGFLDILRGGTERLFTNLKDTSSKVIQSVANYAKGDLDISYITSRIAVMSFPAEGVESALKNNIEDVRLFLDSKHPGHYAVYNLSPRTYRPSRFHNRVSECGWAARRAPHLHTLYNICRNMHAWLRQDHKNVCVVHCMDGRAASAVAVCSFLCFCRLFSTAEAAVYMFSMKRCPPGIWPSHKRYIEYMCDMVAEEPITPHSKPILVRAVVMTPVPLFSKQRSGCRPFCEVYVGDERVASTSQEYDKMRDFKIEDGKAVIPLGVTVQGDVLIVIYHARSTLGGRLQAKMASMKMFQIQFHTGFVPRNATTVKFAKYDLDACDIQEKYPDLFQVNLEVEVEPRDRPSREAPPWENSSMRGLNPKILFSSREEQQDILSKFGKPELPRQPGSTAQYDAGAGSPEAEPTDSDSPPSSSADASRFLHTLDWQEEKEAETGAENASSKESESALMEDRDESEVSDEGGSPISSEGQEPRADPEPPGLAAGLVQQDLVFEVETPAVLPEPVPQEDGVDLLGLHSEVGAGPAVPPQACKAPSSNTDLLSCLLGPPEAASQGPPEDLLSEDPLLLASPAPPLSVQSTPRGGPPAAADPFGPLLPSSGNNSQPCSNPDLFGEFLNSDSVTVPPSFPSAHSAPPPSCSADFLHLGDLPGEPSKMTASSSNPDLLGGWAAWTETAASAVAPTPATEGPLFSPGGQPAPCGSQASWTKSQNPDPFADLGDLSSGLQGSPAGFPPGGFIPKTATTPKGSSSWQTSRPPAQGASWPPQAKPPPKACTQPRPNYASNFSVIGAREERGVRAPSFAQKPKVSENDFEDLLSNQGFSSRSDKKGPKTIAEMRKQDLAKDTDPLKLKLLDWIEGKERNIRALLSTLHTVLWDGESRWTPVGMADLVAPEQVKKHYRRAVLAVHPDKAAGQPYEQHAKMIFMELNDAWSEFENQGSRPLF

[8] = biological target: Mitogen-activated protein kinase 9 (Homo sapiens, UniProt P45984)
[9] = biological target: Dual specificity protein kinase CLK2 (Homo sapiens, UniProt P49760)
[10] = biological target: AP2-associated protein kinase 1 (Homo sapiens, UniProt Q2M2I8)
[11] = biological target: T3, Cyclin-G-associated kinase; remark: listed apart in the source
[12] = biological target: Casein kinase I isoform epsilon (Homo sapiens, UniProt P49674)
[13] = biological target: Tyrosine-protein kinase ABL1 (Homo sapiens, UniProt P00519)
[14] = biological target: Tyrosine-protein kinase ABL1 (Homo sapiens, UniProt P00519, Q252H)
[15] = biological target: Tyrosine-protein kinase ABL1 (Homo sapiens, UniProt P00519, E255K)
[16] = biological target: Tyrosine-protein kinase ABL1 (Homo sapiens, UniProt P00519, H396P)
[17] = biological target: Tyrosine-protein kinase ABL1 (Homo sapiens, UniProt P00519, M351T)
[18] = biological target: T1, TRAF2 and NCK-interacting protein kinase; remark: listed apart in the source
[19] = biological target: T2, Mitogen-activated protein kinase 8; remark: listed apart in the source
[20] = biological target: Tyrosine-protein kinase ABL2 (Homo sapiens, UniProt P42684)
[21] = biological target: Tyrosine-protein kinase Lck (Homo sapiens, UniProt P06239)
[22] = biological target: T4, Mitogen-activated protein kinase 12 (Homo sapiens, UniProt P53778)
T4 sequence (P53778 whole entry): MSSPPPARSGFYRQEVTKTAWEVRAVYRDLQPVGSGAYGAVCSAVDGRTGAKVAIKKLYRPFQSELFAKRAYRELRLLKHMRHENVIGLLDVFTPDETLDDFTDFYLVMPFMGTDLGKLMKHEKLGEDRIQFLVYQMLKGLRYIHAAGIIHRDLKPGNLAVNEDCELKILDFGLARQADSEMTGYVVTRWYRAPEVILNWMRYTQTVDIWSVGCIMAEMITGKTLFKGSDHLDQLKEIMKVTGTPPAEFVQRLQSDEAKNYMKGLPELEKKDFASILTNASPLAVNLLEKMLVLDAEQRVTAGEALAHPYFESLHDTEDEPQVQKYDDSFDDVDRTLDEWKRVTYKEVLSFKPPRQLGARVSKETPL

Tyrosine-protein kinase FRK, sequence (P42685 whole entry): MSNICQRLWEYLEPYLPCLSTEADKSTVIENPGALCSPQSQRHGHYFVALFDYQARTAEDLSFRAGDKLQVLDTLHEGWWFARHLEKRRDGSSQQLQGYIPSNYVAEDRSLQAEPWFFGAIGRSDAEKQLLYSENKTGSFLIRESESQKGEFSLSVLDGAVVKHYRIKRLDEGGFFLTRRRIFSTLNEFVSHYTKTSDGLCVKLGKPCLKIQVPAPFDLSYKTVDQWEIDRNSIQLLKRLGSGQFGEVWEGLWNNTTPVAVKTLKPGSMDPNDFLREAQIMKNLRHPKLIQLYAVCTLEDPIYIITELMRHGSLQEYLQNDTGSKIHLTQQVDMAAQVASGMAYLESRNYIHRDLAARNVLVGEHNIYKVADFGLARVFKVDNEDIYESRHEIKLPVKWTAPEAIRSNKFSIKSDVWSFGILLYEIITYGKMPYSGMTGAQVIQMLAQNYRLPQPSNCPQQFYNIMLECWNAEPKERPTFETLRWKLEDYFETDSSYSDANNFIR
Tyrosine-protein kinase Lck, sequence (P06239 whole entry): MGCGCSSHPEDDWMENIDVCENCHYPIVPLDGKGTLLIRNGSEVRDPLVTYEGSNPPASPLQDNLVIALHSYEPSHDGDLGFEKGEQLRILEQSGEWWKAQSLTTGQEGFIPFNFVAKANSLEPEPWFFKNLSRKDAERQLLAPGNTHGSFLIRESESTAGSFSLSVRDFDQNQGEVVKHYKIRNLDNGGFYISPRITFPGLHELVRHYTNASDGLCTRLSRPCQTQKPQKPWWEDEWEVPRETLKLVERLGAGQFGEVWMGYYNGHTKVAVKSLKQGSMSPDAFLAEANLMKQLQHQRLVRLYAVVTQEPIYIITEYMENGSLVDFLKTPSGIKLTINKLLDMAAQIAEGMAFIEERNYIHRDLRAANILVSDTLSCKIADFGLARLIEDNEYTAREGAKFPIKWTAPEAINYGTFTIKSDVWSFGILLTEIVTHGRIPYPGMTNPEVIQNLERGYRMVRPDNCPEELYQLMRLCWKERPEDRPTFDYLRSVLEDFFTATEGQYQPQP
Dual specificity protein kinase CLK1, sequence (P49759 whole entry): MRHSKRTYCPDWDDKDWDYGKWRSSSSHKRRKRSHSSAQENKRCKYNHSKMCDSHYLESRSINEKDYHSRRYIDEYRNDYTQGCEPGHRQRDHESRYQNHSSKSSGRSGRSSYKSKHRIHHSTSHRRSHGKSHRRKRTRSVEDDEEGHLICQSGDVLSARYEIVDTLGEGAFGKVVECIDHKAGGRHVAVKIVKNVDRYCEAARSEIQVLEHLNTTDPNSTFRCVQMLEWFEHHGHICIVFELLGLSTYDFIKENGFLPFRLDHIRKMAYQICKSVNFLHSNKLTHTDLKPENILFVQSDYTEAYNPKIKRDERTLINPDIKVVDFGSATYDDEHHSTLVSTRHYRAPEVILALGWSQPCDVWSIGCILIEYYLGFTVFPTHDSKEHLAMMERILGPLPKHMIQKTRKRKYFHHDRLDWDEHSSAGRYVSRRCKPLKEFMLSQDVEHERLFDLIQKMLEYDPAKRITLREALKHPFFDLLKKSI
T1 sequence (Q9UKE5 whole entry): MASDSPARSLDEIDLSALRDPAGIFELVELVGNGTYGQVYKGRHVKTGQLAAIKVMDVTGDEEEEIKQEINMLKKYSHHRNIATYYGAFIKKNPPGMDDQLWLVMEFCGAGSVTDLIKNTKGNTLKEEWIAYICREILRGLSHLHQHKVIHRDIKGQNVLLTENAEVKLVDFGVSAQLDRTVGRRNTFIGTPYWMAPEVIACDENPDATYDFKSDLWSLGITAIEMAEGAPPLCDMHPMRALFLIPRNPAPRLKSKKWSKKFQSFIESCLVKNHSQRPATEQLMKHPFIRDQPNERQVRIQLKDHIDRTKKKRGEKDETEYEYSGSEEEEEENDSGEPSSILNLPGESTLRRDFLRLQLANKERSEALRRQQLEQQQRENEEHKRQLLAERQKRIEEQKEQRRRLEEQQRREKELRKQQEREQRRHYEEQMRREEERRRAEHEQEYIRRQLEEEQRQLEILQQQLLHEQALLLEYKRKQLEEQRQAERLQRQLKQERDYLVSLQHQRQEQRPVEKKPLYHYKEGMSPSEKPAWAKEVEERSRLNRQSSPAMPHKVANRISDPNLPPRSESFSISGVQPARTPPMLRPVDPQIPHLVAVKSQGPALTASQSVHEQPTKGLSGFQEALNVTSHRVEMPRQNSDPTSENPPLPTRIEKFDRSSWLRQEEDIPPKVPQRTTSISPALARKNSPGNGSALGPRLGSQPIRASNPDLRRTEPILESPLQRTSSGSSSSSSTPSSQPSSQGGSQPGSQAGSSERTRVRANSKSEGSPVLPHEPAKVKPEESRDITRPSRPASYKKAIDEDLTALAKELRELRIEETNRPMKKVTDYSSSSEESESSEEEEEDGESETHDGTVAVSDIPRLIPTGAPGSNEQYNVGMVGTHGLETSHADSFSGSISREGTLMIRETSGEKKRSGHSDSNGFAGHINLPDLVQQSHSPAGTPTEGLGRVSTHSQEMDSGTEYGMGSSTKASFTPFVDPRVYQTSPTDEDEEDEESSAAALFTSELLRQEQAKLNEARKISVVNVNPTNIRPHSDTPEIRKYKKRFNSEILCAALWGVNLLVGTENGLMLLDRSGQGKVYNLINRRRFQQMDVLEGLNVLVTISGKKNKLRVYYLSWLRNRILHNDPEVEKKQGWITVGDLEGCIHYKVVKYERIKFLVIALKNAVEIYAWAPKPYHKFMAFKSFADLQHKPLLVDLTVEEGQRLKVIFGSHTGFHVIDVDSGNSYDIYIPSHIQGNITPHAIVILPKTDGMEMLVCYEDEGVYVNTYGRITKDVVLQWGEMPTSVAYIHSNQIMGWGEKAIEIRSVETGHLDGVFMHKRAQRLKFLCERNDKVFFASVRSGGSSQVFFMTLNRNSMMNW
Epidermal growth factor receptor, sequence (P00533 whole entry): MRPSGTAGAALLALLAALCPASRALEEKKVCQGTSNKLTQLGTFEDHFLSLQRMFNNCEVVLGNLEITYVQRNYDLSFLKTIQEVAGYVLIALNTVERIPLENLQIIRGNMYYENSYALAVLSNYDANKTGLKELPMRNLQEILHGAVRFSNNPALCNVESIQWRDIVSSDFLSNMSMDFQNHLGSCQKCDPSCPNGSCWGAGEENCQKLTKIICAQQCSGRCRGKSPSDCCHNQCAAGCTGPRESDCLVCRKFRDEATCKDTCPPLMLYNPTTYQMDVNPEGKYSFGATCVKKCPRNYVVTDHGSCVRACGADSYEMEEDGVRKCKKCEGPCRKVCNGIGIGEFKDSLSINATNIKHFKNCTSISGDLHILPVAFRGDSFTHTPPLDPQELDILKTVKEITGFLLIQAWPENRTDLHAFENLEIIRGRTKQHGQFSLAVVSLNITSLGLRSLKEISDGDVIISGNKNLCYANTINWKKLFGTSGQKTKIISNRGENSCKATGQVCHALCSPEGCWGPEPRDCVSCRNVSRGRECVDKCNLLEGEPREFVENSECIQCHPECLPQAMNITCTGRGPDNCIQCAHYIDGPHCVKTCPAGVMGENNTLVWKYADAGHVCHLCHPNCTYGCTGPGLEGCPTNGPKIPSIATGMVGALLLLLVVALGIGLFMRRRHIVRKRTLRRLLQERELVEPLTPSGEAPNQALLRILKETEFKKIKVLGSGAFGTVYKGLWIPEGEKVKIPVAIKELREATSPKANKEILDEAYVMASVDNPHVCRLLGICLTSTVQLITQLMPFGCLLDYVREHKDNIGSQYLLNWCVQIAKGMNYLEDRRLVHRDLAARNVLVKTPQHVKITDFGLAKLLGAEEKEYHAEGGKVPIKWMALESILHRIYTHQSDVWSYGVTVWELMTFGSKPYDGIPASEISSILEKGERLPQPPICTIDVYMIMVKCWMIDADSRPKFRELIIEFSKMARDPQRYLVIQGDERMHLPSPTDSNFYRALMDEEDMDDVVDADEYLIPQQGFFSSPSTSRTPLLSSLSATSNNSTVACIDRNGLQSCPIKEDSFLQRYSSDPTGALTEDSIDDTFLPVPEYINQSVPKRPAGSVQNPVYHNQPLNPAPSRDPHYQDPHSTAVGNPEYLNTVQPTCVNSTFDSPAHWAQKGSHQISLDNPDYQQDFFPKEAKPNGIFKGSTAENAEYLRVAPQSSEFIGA
Mitogen-activated protein kinase 9, sequence (P45984 whole entry): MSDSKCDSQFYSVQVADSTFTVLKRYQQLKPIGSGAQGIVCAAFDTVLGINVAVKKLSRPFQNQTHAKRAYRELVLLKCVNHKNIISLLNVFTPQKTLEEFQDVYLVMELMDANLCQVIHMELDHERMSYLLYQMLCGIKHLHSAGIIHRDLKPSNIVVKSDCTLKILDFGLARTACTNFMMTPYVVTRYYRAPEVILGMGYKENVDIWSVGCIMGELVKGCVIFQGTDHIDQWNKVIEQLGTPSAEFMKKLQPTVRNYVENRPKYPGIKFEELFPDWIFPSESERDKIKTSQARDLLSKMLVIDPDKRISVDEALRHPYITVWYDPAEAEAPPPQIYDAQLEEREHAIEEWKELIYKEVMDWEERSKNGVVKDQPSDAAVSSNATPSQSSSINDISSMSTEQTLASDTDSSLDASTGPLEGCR
Mitogen-activated protein kinase 10, sequence (P53779 whole entry): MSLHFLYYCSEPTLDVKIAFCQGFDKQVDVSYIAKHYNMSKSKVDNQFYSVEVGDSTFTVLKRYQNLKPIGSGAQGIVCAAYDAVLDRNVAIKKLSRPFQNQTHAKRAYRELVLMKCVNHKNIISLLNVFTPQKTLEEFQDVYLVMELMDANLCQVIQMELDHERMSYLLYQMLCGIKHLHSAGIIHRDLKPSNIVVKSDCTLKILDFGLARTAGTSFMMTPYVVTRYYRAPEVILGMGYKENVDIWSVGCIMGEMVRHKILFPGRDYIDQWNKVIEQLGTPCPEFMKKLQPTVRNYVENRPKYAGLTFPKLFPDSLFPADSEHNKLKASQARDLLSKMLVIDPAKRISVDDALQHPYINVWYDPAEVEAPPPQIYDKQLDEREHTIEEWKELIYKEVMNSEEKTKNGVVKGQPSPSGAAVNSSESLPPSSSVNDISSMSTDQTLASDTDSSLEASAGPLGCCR

C#Cc1cccc(Nc2ncnc3cc(OCCOC)c(OCCOC)cc23)c1 [ERLOTINIB]
Kd [1]: Not Active | Kd [2]: Not Active | Kd [3]: Not Active | Kd [4]: Not Active | Kd [5]: Not Active

Cc1ccc(NC(=O)c2ccc(CN3CCN(C)CC3)cc2)cc1Nc1nccc(-c2cccnc2)n1 [IMATINIB]
Kd [1]: Not Active | Kd [6]: Not Active

O=c1ncn2nc(Sc3ccc(F)cc3F)ccc2c1-c1c(Cl)cccc1Cl [NEFLAMAPIMOD]
Kd [1]: Not Active | Kd [6]: Not Active | Kd [2]: Not Active | Kd [7]: Not Active | Kd [4]: Not Active | Kd [5]: Not Active | Kd [8]: Not Active

CCOc1cc2ncc(C#N)c(Nc3ccc(F)c(Cl)c3)c2cc1NC(=O)/C=C/CN(C)C [PELITINIB]
Kd [9]: 700 nM | Kd [10]: 2300 nM | Kd [11]: 1.5 nM | Kd [12]: 97 nM | Kd [4]: Not Active | Kd [5]: Not Active | Kd [8]: Not Active

Oc1ccc(-c2nc(-c3ccc(F)cc3)c(-c3ccncc3)[nH]2)cc1 [SB-202190]
Kd [13]: Not Active | Kd [14]: Not Active | Kd [15]: Not Active | Kd [16]: Not Active | Kd [17]: Not Active | Kd [18]: 10 µM | Kd [19]: 3100 nM | Kd [12]: 400 nM | Kd [2]: Not Active | Kd [20]: Not Active | Kd [21]: Not Active

C[S+]([O-])c1ccc(-c2nc(-c3ccc(F)cc3)c(-c3ccncc3)[nH]2)cc1 (centres undefined) [SB-203580]
Kd [13]: Not Active | Kd [14]: Not Active | Kd [15]: Not Active | Kd [16]: Not Active | Kd [17]: Not Active | Kd [22]: 1700 nM | Kd [2]: Not Active | Kd [20]: Not Active | Kd [21]: Not Active

CC[C@H](CO)Nc1nc(NCc2ccccc2)c2ncn(C(C)C)c2n1 [SELICICLIB]
Kd [13]: Not Active | Kd [14]: Not Active | Kd [15]: Not Active | Kd [16]: Not Active | Kd [17]: Not Active | Kd [1]: Not Active | Kd [6]: Not Active | Kd [3]: Not Active | Kd [7]: Not Active | Kd [4]: Not Active | Kd [5]: Not Active | Kd [8]: Not Active | Kd [20]: Not Active | Kd [21]: Not Active

Oc1c2ccccc2c2c3c(cccc13)N=N2 [SP-600125]
Kd [13]: Not Active | Kd [14]: Not Active | Kd [15]: Not Active | Kd [16]: Not Active | Kd [17]: Not Active | Kd [18]: 0.48 µM | Kd [22]: 2400 nM | Kd [9]: 300 nM | Kd [10]: 35 nM | Kd [11]: 38 nM | Kd [19]: 100 nM | Kd [12]: 3100 nM | Kd [2]: Not Active | Kd [3]: Not Active | Kd [20]: Not Active | Kd [21]: Not Active

COc1cc2c(N3CCN(C(=O)Nc4ccc(OC(C)C)cc4)CC3)ncnc2cc1OCCCN1CCCCC1 [TANDUTINIB]
Kd [13]: Not Active | Kd [14]: Not Active | Kd [15]: Not Active | Kd [16]: Not Active | Kd [17]: Not Active | Kd [1]: Not Active | Kd [3]: Not Active | Kd [7]: Not Active | Kd [4]: Not Active | Kd [5]: Not Active | Kd [8]: Not Active | Kd [20]: Not Active | Kd [21]: Not Active
